These compounds were tested against T1, ZBED4_C599 (Homo sapiens, UniProt O75132) (assay: IA-DTB cysteine engagement). Conditions: 22Rv1 cells, 20 μM probe, 1 h, relative to DMSO.
T1 construct: endogenous in cells; host or cells: 22Rv1
T1 sequence (O75132 1-1171): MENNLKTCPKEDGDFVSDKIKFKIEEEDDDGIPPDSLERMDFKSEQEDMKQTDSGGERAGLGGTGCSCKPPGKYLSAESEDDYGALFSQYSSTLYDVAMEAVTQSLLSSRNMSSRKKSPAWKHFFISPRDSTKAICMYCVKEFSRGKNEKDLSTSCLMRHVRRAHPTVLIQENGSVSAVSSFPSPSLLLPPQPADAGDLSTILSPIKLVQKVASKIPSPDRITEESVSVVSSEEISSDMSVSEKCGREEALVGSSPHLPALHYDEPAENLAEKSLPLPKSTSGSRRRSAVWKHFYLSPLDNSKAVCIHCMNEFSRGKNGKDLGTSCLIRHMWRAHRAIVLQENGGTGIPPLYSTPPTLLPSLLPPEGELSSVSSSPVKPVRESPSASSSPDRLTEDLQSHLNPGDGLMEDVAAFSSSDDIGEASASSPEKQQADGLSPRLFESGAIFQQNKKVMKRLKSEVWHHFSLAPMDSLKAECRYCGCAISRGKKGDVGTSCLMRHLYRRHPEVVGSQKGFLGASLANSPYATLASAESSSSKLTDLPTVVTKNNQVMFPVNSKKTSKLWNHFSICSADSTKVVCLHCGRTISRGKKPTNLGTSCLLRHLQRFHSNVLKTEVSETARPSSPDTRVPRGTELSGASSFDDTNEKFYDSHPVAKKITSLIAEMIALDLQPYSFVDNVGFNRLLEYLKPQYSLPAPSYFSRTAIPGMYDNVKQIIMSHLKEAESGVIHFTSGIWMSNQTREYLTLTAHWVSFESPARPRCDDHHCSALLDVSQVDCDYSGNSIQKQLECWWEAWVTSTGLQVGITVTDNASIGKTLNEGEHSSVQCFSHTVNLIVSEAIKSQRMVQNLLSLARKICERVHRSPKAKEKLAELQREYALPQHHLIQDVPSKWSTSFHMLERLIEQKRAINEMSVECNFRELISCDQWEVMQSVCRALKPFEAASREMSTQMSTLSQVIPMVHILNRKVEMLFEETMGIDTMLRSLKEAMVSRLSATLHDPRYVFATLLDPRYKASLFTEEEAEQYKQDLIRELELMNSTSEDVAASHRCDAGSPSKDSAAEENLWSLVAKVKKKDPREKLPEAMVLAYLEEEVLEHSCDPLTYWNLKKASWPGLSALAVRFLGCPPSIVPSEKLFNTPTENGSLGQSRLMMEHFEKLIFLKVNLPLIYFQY
Format: binding
How it was run: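 Cells were treated in situ with electrophilic probes, then lysed, and the lysates (2 mg/mL protein) were labeled with IA-DTB for 1 h at ambient temperature. After reduction, alkylation and trypsin digestion, labeled peptides were streptavidin-enriched, TMT-labeled and fractionated. Engagement ratios are probe vs DMSO reporter intensities, averaged across replicates.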

SMILES	% engagement ZBED4_C599 [%]
C=CC(=O)N1C[C@@H](c2ccc(Br)cc2)[C@H]1C(=O)Nc1cccc2cccnc12 [MY-1A, (2S,3R)-1-acryloyl-3-(4-bromophenyl)-N-(quinolin-8-yl)azetidine-2-carboxamide]	16
C=CC(=O)N1C[C@H](c2ccc(Br)cc2)[C@@H]1C(=O)Nc1cccc2cccnc12 [MY-1B, (2R,3S)-1-acryloyl-3-(4-bromophenyl)-N-(quinolin-8-yl)azetidine-2-carboxamide]	39
C=CC(=O)N1C[C@H](c2ccc(Br)cc2)[C@H]1C(=O)Nc1cccc2cccnc12 [MY-3A, (2S,3S)-1-acryloyl-3-(4-bromophenyl)-N-(quinolin-8-yl)azetidine-2-carboxamide]	21
C=CC(=O)N1C[C@H](c2ccc(Br)cc2)[C@H]1C(=O)Nc1cccc2cccnc12 [MY-3B, (2S,3S)-1-acryloyl-3-(4-bromophenyl)-N-(quinolin-8-yl)azetidine-2-carboxamide]	83.5
